From PubChem BioAssay (NCI)
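1) Cells in 96-well plates. 2) Compound, 48 h, 5 concentrations. 3) Linear interpolation between surrounding doses. 4) Unreached endpoint = highest concentration. TGI marks complete inhibition of growth.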

Assays:
Test in all cases: NCI tumour cell line growth inhibition, 48 h
[1] = test system: 786-0 renal
[2] = test system: ACHN renal
[3] = test system: HL-60(TB) leukemia
[4] = test system: HOP-62 NSCLC
[5] = test system: IGROV1 ovarian
[6] = test system: KM12 colon
[7] = test system: NCI-H23 lung
[8] = test system: OVCAR-5 ovarian
[9] = test system: OVCAR-8 ovarian
[10] = test system: SF-268 CNS
[11] = test system: SK-MEL-28 melanoma
[12] = test system: SK-OV-3 ovarian
[13] = test system: SNB-19 CNS
[14] = test system: UO-31 renal
[15] = test system: MOLT-4 leukemia
[16] = test system: SF-295 CNS

Row | Structure (SMILES) | TGI [1] [µM] | TGI [2] [µM] | TGI [3] [µM] | TGI [4] [µM] | TGI [5] [µM] | TGI [6] [µM] | TGI [7] [µM] | TGI [8] [µM] | TGI [9] [µM] | TGI [10] [µM] | TGI [11] [µM] | TGI [12] [µM] | TGI [13] [µM] | TGI [14] [µM] | TGI [15] [µM] | TGI [16] [µM]
1 | CC(Br)CN1CCOCC1 (stereo not drawn) | > 100 | > 100 | 51.8 | > 100 | > 100 | > 100 | > 100 | > 100 | > 100 | > 100 | > 100 | > 100 | > 100 | > 100 | – | –
2 | CCOC(=O)CN1C(=O)NC(C)(c2ccccc2)C1=O (stereo not drawn) | > 100 | > 100 | – | > 100 | > 100 | > 100 | > 100 | > 100 | > 100 | > 100 | > 100 | > 100 | > 100 | > 100 | > 100 | > 100
3 | COc1ccc2c(c1)CCc1c-2[nH]c2cc3c(cc2c1=O)OCO3 | > 100 | > 100 | > 100 | > 100 | > 100 | > 100 | > 100 | – | > 100 | – | > 100 | > 100 | > 100 | > 100 | > 100 | –
4 | CCCCN=NNc1cn(C2OC(CO)C(O)C2O)c(=O)[nH]c1=O (stereo not drawn) | > 100 | > 100 | > 100 | > 100 | > 100 | > 100 | > 100 | > 100 | > 100 | > 100 | > 100 | > 100 | > 100 | – | > 100 | > 100
5 | CCCCCCCCOC(=O)C12Oc3ccc(-c4ccc5c(c4O)C(O)=C4C(=O)CC(C)C(O)C4(C(=O)OCCCCCCCC)O5)c(O)c3C(O)=C1C(=O)CC(C)C2O (stereo not drawn) | > 100 | 25.5 | 9.61 | – | 61.3 | > 100 | 31.5 | 96.2 | 35 | > 100 | > 100 | > 100 | 36.8 | 92.2 | 60.6 | 48
6 | Clc1cccc(-c2nc3cccc4c3n2Cc2ncccc2-4)c1 | > 100 | > 100 | – | > 100 | > 100 | > 100 | > 100 | > 100 | > 100 | > 100 | > 100 | > 100 | > 100 | – | – | > 100
7 | Clc1sc(Cl)c2c1[C@H](Cl)C[C@@H]2Cl | 48.9 | 95 | – | > 100 | 38.6 | > 100 | 50 | 81.2 | 34.9 | 44.3 | 38.1 | > 100 | – | 32.3 | > 100 | > 100
8 | CCO/C(O)=C(/C(=N)N1CCOCC1)C(=O)NC(C)C | > 100 | > 100 | > 100 | > 100 | > 100 | > 100 | > 100 | > 100 | > 100 | > 100 | > 100 | > 100 | > 100 | – | > 100 | > 100
9 | CN1CCN(c2cc3nc(-c4ccc(Cl)cc4)[nH]c3cc2F)CC1 | 67.2 | 29.8 | – | 30.6 | 36.1 | > 45.2 | 34.2 | 48.9 | > 100 | 51.3 | 30.8 | 59.5 | > 81.8 | 20.6 | 41.1 | 28.8
10 | O=S1SC(=S)C2C=CC=NC21 (stereo not drawn) | 27.6 | 32.4 | > 100 | – | 49.6 | > 100 | 43.1 | 28.6 | 79 | 44.6 | > 100 | > 100 | 87.9 | 28.4 | 64.9 | 62.3
11 | CNC(=O)C(C)Oc1ccc(OCC2CCCCC2)cc1 (stereo not drawn) | > 100 | > 100 | > 100 | – | > 100 | > 100 | > 100 | – | > 100 | > 100 | > 100 | > 100 | > 100 | > 100 | > 100 | > 100
12 | O=Cc1ccc2ccocc1-2 | > 100 | > 100 | > 100 | > 100 | > 100 | > 100 | > 100 | > 100 | > 100 | > 100 | – | > 100 | > 100 | > 100 | > 100 | > 100
13 | O=c1[nH]c2c(c(=O)[nH]1)SC(c1ccccc1)C2 (stereo not drawn) | > 100 | > 100 | > 100 | > 100 | > 100 | > 100 | > 100 | > 100 | > 100 | > 100 | > 100 | – | > 100 | > 100 | > 100 | > 100
14 | Cc1[nH]c(C)c(CN(C)C)c1CN(C)C | > 100 | > 100 | – | > 100 | > 100 | > 100 | > 100 | > 100 | > 100 | > 100 | > 100 | > 100 | > 100 | > 100 | – | > 100
15 | CCOC(=O)[C@@H]1[C@@H](c2ccccc2)N(C)O[C@@]1(c1ccccc1)C(F)(F)F | > 100 | > 100 | – | > 100 | > 100 | > 100 | > 100 | > 100 | > 100 | > 100 | > 100 | > 100 | > 100 | > 100 | – | > 100
16 | Nc1nc(SCC(=O)c2ccccc2)c2[nH]cnc2n1 | > 100 | > 100 | > 100 | > 100 | > 100 | > 100 | > 100 | > 100 | > 100 | > 100 | > 100 | > 100 | > 100 | – | > 100 | > 100

Row | Structure (SMILES) | TGI [1] [µM] | TGI [2] [µM] | TGI [3] [µM] | TGI [4] [µM] | TGI [5] [µM] | TGI [6] [µM] | TGI [7] [µM] | TGI [8] [µM] | TGI [9] [µM] | TGI [10] [µM] | TGI [11] [µM] | TGI [12] [µM] | TGI [13] [µM] | TGI [14] [µM] | TGI [15] [µM] | TGI [16] [µM]
17 | O=c1[nH]c(=O)c2c([nH]1)[nH]c1ccc(Br)cc12 | > 100 | > 100 | > 100 | > 100 | > 100 | 79.3 | > 100 | > 100 | > 100 | > 100 | – | 56.4 | > 100 | > 100 | – | > 100
18 | COc1ccc(-c2sc(Br)c3c2C(=O)C2OC(=O)NC32)cc1OC (stereo not drawn) | > 100 | > 100 | > 100 | > 100 | > 100 | > 100 | > 100 | > 100 | > 100 | > 100 | – | > 100 | > 100 | > 100 | > 100 | > 100
19 | C=C1N(S(=O)(=O)c2ccc(C)cc2)C(=O)OCC12CCCC2 | > 100 | > 100 | > 100 | – | > 100 | > 100 | > 100 | > 100 | > 100 | – | > 100 | > 100 | > 100 | > 100 | > 100 | > 100
20 | Cc1ccc(Sc2ccccc2C23OC(C)(C4C(=O)N(c5ccccc5)C(=O)C42)N(C)C3=O)cc1 (stereo not drawn) | > 100 | > 100 | > 100 | – | > 100 | > 100 | > 100 | > 100 | > 100 | > 100 | > 100 | > 100 | > 100 | > 100 | > 100 | > 100
21 | CC1(c2ccccc2)O[C@@H]2C[C@H]3[C@@H]4CCC5=CC(=O)C=C[C@]5(C)[C@@]4(F)[C@@H](O)C[C@]3(C)[C@]2(C(=O)CO)O1 (stereo partly drawn) | 32.2 | 34.8 | 39.4 | 29.2 | 38.7 | 30 | 36.3 | 33.1 | 41.7 | 49 | 30.8 | – | 63.7 | 33 | – | 36.2
22 | O=C(OCc1ccccc1)C(Cc1ccc(OCc2ccccc2)cn1)NC(=O)C(F)(F)F (stereo not drawn) | > 100 | > 100 | > 100 | > 100 | > 100 | > 100 | > 100 | > 100 | > 100 | > 100 | > 100 | – | > 100 | > 100 | > 100 | > 100
23 | CC(C)(C)OC(=O)N(O)[C@@H]1CC[C@H](n2cnc3c(N)ncnc32)C1 | > 100 | > 100 | – | > 100 | > 100 | > 100 | > 100 | > 100 | > 100 | > 100 | > 100 | > 100 | > 100 | > 100 | > 100 | > 100
24 | N=c1oc2ccccc2cc1C(=O)Nc1cccc2ccccc12 | > 100 | > 100 | > 100 | > 100 | > 100 | > 100 | > 100 | > 100 | > 100 | > 100 | > 100 | > 100 | > 100 | – | > 100 | –
25 | Cc1cc(C)c(NS(=O)c2cccc(C(F)(F)F)c2)c(C)c1 (stereo not drawn) | > 100 | > 100 | > 100 | > 100 | – | > 100 | > 100 | > 100 | > 100 | > 100 | > 100 | – | > 100 | > 100 | > 100 | > 100
26 | CCOC(=O)c1ncn(CCc2ccc(Cl)cc2)c1C | > 100 | > 100 | > 100 | > 100 | > 100 | > 100 | > 100 | > 100 | > 100 | > 100 | > 100 | – | > 100 | > 100 | > 100 | > 100
27 | CSc1c(C#N)c(=O)n(N)c2c1c(C)nn2-c1ccccc1 | > 100 | – | 94.5 | – | – | > 100 | 52.7 | > 100 | 54 | > 100 | > 100 | 93.8 | > 100 | 51.9 | 85.1 | –
28 | Cc1ccc(Nc2cccc3c2C(=O)c2cccc(Nc4ccc(C)cc4S(=O)(=O)O)c2C3=O)c(S(=O)(=O)O)c1 | > 100 | > 100 | > 100 | > 100 | > 100 | > 100 | – | – | > 100 | > 100 | > 100 | > 100 | > 100 | > 100 | > 100 | –
29 | COCn1cc(C2=C(C)C(=O)C(C)=C(C)C2=O)cn1 | 32.2 | > 100 | 24.3 | > 100 | > 100 | > 100 | > 100 | > 100 | 36.8 | 66 | > 100 | – | > 100 | > 100 | 42 | > 100
30 | CC1(C)Cc2c(sc3[nH]c(=S)[nH]c(=S)c23)CS1 | > 100 | – | 92.7 | > 100 | > 100 | > 100 | > 100 | – | > 100 | > 100 | > 100 | 99.7 | > 100 | > 100 | > 100 | –
31 | O=C(c1cscc1CCc1ccccc1)c1cscc1CCc1ccccc1 | > 100 | > 100 | – | > 100 | > 100 | > 100 | > 100 | > 100 | > 100 | > 100 | > 100 | > 100 | > 100 | > 100 | > 100 | > 100
32 | Cc1ccc(N2C(=O)C3c4[nH]c5ccc(C)cc5c4C4CCC(C(C)(C)C)CC4C3C2=O)cc1 (stereo not drawn) | 17.1 | – | 82.8 | 24.5 | 36.5 | 62.4 | 39.7 | 30.8 | 24.4 | 33.2 | 90.6 | – | 80.5 | > 100 | 8.06 | 40.7
